Experimental data reported in patent US10344279B2, “Methods for the prevention and the treatment of extracapillary glomerulonephritis” (INSERM (Institut National de la Sante et de la Recherche …, priority 2014, dated 2019).
“Also recorded” adds a separate entry of the source.

B1: HB-EGF: heparin-binding epidermal growth factor-like growth factor, EGFR ligand (Preprotech) (protein, UniProt Q99075 63-148, looked up)
Heparin-binding EGF-like …: DLQEADLDLLRVTLSSKPQALATPNKEEHGKRKKKGKGLGKKRDPCLRKYKDFCIHGECKYVKELRAPSCICHPGYHGERCHGLSL

How the values were obtained:
phospho-STAT3 (Tyr705) [1] = assay: Western blot of phospho-STAT3 in primary culture of podocytes; format: cell-based, mouse; settings: 16 hours; AG1478 1 μM, anti-mIL-6 antibody 10 μg/mL, HB-EGF 10 ng/mL
Method: After 4 days of primary culture, podocytes were trypsinized then plated into μ-Dish 35 mm high with Culture-Insert (Ibidi). Ibidi's wounding inserts were used for cell migration studies. The coverage of the 500-μm gap was assessed after 12 hours of culture and podocyte migration area was quantified using ImageJ software. The effects of HB-EGF (10 ng/mL, Preprotech) or AG1478 (1 μM, Calbiochem) or anti-mIL-6 monoclonal antibody MP5-20F3 (10 μg/mL, eBiosciences) or Stattic (2 μM, Calbiochem) on differentiated podocytes was applied during 16 hours. After stimulation, podocytes were scrapped in Phosphosafe buffer for protein extraction or in RLT buffer for total RNA extraction.
After extraction from glomeruli or podocytes with lysis buffer, proteins were quantified by BCA protein assay kit (iNtRON Biotechnology). Samples were resolved on 4-12% Bis-Tris Criterion XT gels (Bio-Rad) then transferred to a polyvinylidene difloride membrane. Membranes were incubated with the appropriate primary antibodies: rabbit anti-phospho-EGFR (Tyr1068) (Cell Signaling Technology), rabbit anti-phospho-STAT3 (Tyr705) (Cell Signaling Technology), goat anti-p57 (Santa Cruz Biotechnology). Protein loading was monitored by using the rat anti-tubulin antibody (Abeam). […] Densitometric analysis with ImageJ software was used for quantification.

phospho-STAT3 (Tyr705) [2] = assay: Western blot of phospho-STAT3 in glomeruli / kidney cortex of NTS-challenged mice; format: in vivo; settings: erlotinib 10 mg/kg/day; NTS-challenged mice
Method: Podocyte-specific disruption of Stat3 mice were generated by crossing podocin-Cre positive mice (63) with Stat3 floxed mice (64) on C57BL6/J background. Their age-matched littermates with no deletion of Stat3 in any cells are considered as controls. […] Stattic (25 mg/kg) was administered in i.p. way every other day for 10 days. 10 weeks old 129S2/SvPasCr male mice were randomly treated with Stattic and were compared to vehicle-treated (DMSO) littermates.
The glomerulonephritis was induced on male mice (10-12 weeks of age) by intravenous injection of 15 μL of sheep anti-glomerular basement membrane (GBM) nephrotoxic serum (NTS), which was diluted with 85 μL of sterile phosphate buffer solution. Serum injections were repeated twice (on days 2 and 3) at 6 μL/g of body weight and 7 μL/g respectively.
Mouse kidneys were extracted, minced, and digested in 2 mg/mL collagenase I solution (Gibco) in RPMI 1640 (Invitrogen) at 37° C. for 3 minutes, then filtered through a 70-μm cell strainer and one more through a 40-μm cell strainer. […] Podocyte outgrowth area was quantified at day 4 using ImageJ software.
After extraction from glomeruli or podocytes with lysis buffer, proteins were quantified by BCA protein assay kit (iNtRON Biotechnology). […] Protein loading was monitored by using the rat anti-tubulin antibody (Abeam). […] Densitometric analysis with ImageJ software was used for quantification.

phospho-EGFR (Tyr1068) = assay: Western blot of phospho-EGFR in kidney cortex of NTS-challenged mice; format: in vivo; settings: erlotinib 10 mg/kg/day
Method: After extraction from glomeruli or podocytes with lysis buffer, proteins were quantified by BCA protein assay kit (iNtRON Biotechnology). […] Membranes were incubated with the appropriate primary antibodies: rabbit anti-phospho-EGFR (Tyr1068) (Cell Signaling Technology), rabbit anti-phospho-STAT3 (Tyr705) (Cell Signaling Technology), goat anti-p57 (Santa Cruz Biotechnology). Protein loading was monitored by using the rat anti-tubulin antibody (Abeam). Secondary antibodies were donkey-anti rabbit HRP and donkey-anti rabbit HRP (GE Healthcare Life Sciences). […] Densitometric analysis with ImageJ software was used for quantification.

Molecule | STAT3 phosphorylation (Tyr705) in cultured primary podocytes (phospho-STAT3 (Tyr705) [1]) | STAT3 phosphorylation in podocytes (phospho-STAT3 (Tyr705) [2]) | EGFR phosphorylation in the kidney cortex (phospho-EGFR (Tyr1068))
COc1cc2ncnc(Nc3cccc(Cl)c3)c2cc1OC [AG1478] | blunted; also recorded: decreased | – | –
C#Cc1cccc(Nc2ncnc3cc(OCCOC)c(OCCOC)cc23)c1 [erlotinib] | – | blunted | efficiently blocked
B1 | enhanced | – | –
